Assay results as given in EP0450515B1, “Haloethyl-substituted steroidal enzyme inhibitors” (MERRELL DOW PHARMACEUTICALS INC., priority 1990, dated 1991).

Molecular target: T1, aromatase (Homo sapiens, UniProt P11511)
T1 construct: aromatase preparation, usually 50-800 »g of microsomal protein per ml of assay buffer; from tissue; host or cells: microsomes
T1 sequence (P11511 1-503): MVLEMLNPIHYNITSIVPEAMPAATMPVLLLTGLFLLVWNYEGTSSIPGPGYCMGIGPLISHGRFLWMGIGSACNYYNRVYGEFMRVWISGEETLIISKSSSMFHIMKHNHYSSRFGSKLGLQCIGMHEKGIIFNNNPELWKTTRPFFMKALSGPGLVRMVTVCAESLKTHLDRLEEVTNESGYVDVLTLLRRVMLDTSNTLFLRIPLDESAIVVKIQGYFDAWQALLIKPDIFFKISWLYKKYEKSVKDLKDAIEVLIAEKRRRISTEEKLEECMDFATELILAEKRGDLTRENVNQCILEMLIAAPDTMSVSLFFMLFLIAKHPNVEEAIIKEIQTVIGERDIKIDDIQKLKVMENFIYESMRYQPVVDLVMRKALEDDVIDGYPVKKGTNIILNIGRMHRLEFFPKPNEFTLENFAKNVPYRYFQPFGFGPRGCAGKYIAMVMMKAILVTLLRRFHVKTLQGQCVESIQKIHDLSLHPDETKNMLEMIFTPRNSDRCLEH
Assay: time-dependent aromatase inhibition assay (preincubation of inhibitor with enzyme, Kitz-Wilson analysis)
Format: biochemical
Conditions: for τ50: half-time of inactivation at infinite inhibitor concentration, Kitz-Wilson plots, time-dependent assay; for kinact/KI: ratio of kcat/Ki (inactivation), index of efficiency of enzyme inactivation
Description: In this assay, the inhibitor is preincubated with enzyme prior to assaying for activity in the presence of high substrate levels. A time-related decrease in enzyme activity can be indicative of irreversible binding of the inhibitor with the enzyme.
In the time-dependent assay, an amount of the enzyme inhibitor in 100 »l of the assay buffer described above which will provide assay concentrations which are usually between 1 nM and 10 »M are added to 35 ml centrifuge tubes containing 600 »l of the NADPH generating system. The pre-incubation is started by the addition of 700 »l of aromatase preparation, usually 50-800 »g of microsomal protein per ml of assay buffer. These preparations are mixed using a vortex mixer and incubated for 0, 5, 10, or 20 minutes at 25°C. Then 100 »l of androstenedione (∼6.8 »M) containing 1β-³H androstenedione in assay buffer is added to provide an assay concentration of substrate (0.50 »M) which is at least ten times the Km of androstenedione (0.04 »M). Following vortexing, the enzyme incubation is continued for 10 minutes before being terminated by the addition of chloroform. The amount of radioactivity in the aqueous fraction is determined by scintillation procedures. The enzymatic activity for each concentration of inhibitor at each time period of preincubation is calculated as a percent of the respective vehicle control which is arbitrarily set at 100%. Therefore, the relative present enzyme inhibition is expressed as a percentage: (100 percent minus percent enzyme activity with inhibitor present).
Enzyme kinetic analysis utilized Kitz-Wilson plots for time-dependent assays. These analyses provide estimates of apparent Ki of inactivation which represents the inhibitor concentration required to produce half-maximal rate of enzyme inactivation. The pseudo first-order rate constant for enzyme inactivation (kcat) and the half-time of inactivation (τ₅₀) of infinite inhibitor concentrations were determined.

C[C@]12CC[C@H]3[C@@H](CCC4=CC(=O)CC[C@@]43C(O)CCl)[C@@H]1CCC2=O (stereo partly drawn) [HOCHCH₂Cl (R):(S)::9:1, 10-(2-Chloro-1-hydroxyethyl)-estr-4-ene-3,17-dione]
Ki: 0.063 µM
τ50: 3.60 min
kinact/KI: 50700 M⁻¹ s⁻¹

C[C@]12CC[C@H]3[C@@H](CCC4=CC(=O)CC[C@@]43C(O)CI)[C@@H]1CCC2=O (stereo partly drawn) [HOCHCH₂I (R):(S)::9:1, 10-(2-Iodo-1-hydroxyethyl)-estr-4-ene-3,17-dione]
Ki: 0.011 µM
τ50: 2.22 min
kinact/KI: 490000 M⁻¹ s⁻¹

C[C@]12CC[C@H]3[C@@H](CCC4=CC(=O)CC[C@@]43C(O)CBr)[C@@H]1CCC2=O (stereo partly drawn) [HOCHCH₂Br (S):(R)::9:1, 10-(2-Bromo-1-hydroxyethyl)-estr-4-ene-3,17-dione]
Ki: 1.13 µM
τ50: 5.33 min

C[C@]12CC[C@H]3[C@@H](CCC4=CC(=O)CC[C@@]43C(=O)CBr)[C@@H]1CCC2=O [O=CCH₂Br, 10-(2-Bromoacetyl)-estr-4-ene-3,17-dione]
Ki: 0.19 µM
τ50: 32.7 min
kinact/KI: 1860 M⁻¹ s⁻¹

C[C@]12CC[C@H]3[C@@H](CCC4=CC(=O)CC[C@@]43C(O)CBr)[C@@H]1CCC2=O (single isomer, unassigned; diastereomer 10) [HOCHCH₂Br pure (R) diastereomer, 10-(2-Bromo-1-hydroxyethyl)-estr-4-ene-3,17-dione]
Ki: 0.026 µM
τ50: 4.85 min
